In patent US20110190227A1, “Antagonists of Prostaglandin D2 Receptors” (Amira Pharmaceuticals, Inc., priority 2008, published 2011) one finds IC50 data, which are given here for one compound.

pIC50: −log10 of the molar value.

One assay deals with T1, human DP2 receptor (Homo sapiens, UniProt Q9Y5Y4).
T1 construct: expressed in transfected cells
T1 sequence (Q9Y5Y4 1-395): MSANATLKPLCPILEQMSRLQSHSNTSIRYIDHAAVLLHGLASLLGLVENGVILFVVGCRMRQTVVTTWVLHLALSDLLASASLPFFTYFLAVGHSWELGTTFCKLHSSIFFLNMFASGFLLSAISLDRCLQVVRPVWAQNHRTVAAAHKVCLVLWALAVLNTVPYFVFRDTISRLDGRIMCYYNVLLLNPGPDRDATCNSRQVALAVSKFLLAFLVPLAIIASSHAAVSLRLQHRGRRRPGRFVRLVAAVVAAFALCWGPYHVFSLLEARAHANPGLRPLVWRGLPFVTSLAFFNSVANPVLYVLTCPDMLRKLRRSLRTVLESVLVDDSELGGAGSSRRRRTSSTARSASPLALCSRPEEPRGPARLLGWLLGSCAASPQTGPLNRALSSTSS
As to the kind of experiment: DP2/CRTH2 radioligand binding assay ([3H]PGD2). The settings on record: membranes of HEK293 cells expressing recombinant human DP2, 1 nM [3H]PGD2; read-out: hDP2. As to the method: The ability of a compound to bind to the human DP2 receptor is assessed via a radioligand binding assay using [^3H]PGD2. HEK293 cells stably expressing recombinant human DP2 are resuspended in 10 mM Hepes, 7.4 containing 1 mM DTT, lysed and centrifuged at 75,000×g to pellet the membranes. The membranes are resuspended in 10 mM Hepes, 7.4 containing 1 mM DTF and 10% glycerol to approximately 5 mg protein/ml. Membranes (2-10 […]) are incubated in 96-well plates with 1 nM [^3H]PGD2 and test compound in Assay Buffer (50 mM Hepes, 10 mM MnCl2, 1 mM EDTA, plus or minus 0.2% human serum albumin, pH 7.4) for 60 minutes at room temperature. The reactions are terminated by rapid filtration through Whatman GF/C glass fibre filter plates. The filter plates were pre-soaked in 0.33% polythylenimine for 30 minutes at room temperature then washed in Wash Buffer (50 mM Hepes, 0.5 M NaCl pH 7.4) prior to harvesting. After harvesting, the filter plates are washed 3 times with 1 ml cold Wash Buffer then dried. Scintillant is then added to the plates and the radioactivity retained on the filters is determined on a Packard TopCount (Perkin Elmer). Specific binding is determined as total radioactive binding minus non-specific binding in the presence of 10 μM PGD2. IC50s were determined using GraphPad prism analysis of drug titration curves.

The target in a further assay is T2, human DP1 receptor (Homo sapiens, UniProt Q13258).
T2 construct: tissue Biological Specialty Corporation; host or cells: human platelets, membrane preparation
T2 sequence (Q13258 1-359): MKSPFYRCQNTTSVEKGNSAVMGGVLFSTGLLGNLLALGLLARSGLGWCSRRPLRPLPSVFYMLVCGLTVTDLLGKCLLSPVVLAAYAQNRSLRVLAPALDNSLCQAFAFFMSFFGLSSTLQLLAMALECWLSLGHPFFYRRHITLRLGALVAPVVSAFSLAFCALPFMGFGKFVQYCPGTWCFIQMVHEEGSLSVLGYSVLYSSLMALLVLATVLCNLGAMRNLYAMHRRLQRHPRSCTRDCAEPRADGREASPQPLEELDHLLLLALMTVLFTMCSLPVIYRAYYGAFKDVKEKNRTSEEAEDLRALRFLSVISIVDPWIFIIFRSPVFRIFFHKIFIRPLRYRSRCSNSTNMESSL
The assay can be described thus: DP1 radioligand membrane binding assay ([3H]BWA868C). The following applies: human platelet membranes, 2 nM [3H]BWA868C; read-out: hDP1. The procedure: The ability of a compound to bind to the human DP1 receptor was evaluated via a radioligand membrane binding assay using the DP1 selective synthetic ligand [^3H]BWA868C. Packed human platelets (Biological Specialty Corporation), were resuspended in 6 volumes of Hepes/HBSS buffer (10 mM Hepes, 1 mM DTT in Hanks Balanced Salt Solution (HBSS), lysed and centrifuged at 75,000×g to pellet the membranes. Membranes were resuspended in Hepes/HBSS buffer to approximately 12 mg protein/ml. Membranes (20 μg protein/well) are incubated in 96-well plates with 2 nM [^3H]BWA868C and test compound in Assay Buffer (50 mM Hepes, 10 mM MnCl2, 1 mM EDTA, plus or minus 0.2% human serum albumin, pH 7.4) for 60 minutes at room temperature. The reactions are terminated by rapid filtration through Whatman GF/C glass fibre filter plates. The filter plates were pre-soaked in 0.33% polyethylenimine for 30 minutes at room temperature then washed in Wash Buffer (50 mM Hepes, 0.5 M NaCl pH 7.4) prior to harvesting. After harvesting, the filter plates are washed 3 times with 1 ml cold Wash Buffer then dried. Scintillant is then added to the plates and the radioactivity retained on the filters is determined on a Packard TopCount (Perkin Elmer). Specific binding is determined as total radioactive binding minus non-specific binding in the presence of 10 μM BW A868C. IC50s were determined using GraphPad prism analysis of drug titration curves.

With `CS(=O)(=O)c1ccc(-c2ccc(Oc3cccc(CC(=O)O)c3)c(CSc3ccccc3)c2)cc1` [Compound 1-58, [3-(4′-Methanesulfonyl-3-phenylsulfanylmethyl-biphenyl-4-yloxy)-phenyl]-acetic acid], the pIC50 was 6.00 to 6.52 on human DP2 receptor and above 6.52 at human DP1 receptor.
